{"source": "paper PMC5218480", "about": "(PLoS ONE, 2017)", "test_system": "MV-4-11 cells", "assay": "Gene expression microarray analysis (Affymetrix PrimeView) and GSEA", "format": "cell-based, human", "settings": "MV-4-11, 48 hours, 1 μM each"}
{"smiles": "Nc1ccc(-c2cccs2)cc1NC(=O)c1ccc2c(c1)cc(C1CC1)n2CCN1CCOCC1", "note": "[ACY-1035]", "values": [{"measurement": "genes up-regulated greater than 2-fold relative to vehicle control", "value": 386, "unit": "genes"}]}
